Results: publication PMC10687071 (The Journal of Biological Chemistry, 2023)

Target: T1, Y71E mutant EAG1 channels (Mus musculus, UniProt Q60603, Y71E)
T1 construct: expressed in transfected cells; host or cells: Xenopus laevis oocytes injected with cRNA
T1 sequence (Q60603 1-989 Y71E): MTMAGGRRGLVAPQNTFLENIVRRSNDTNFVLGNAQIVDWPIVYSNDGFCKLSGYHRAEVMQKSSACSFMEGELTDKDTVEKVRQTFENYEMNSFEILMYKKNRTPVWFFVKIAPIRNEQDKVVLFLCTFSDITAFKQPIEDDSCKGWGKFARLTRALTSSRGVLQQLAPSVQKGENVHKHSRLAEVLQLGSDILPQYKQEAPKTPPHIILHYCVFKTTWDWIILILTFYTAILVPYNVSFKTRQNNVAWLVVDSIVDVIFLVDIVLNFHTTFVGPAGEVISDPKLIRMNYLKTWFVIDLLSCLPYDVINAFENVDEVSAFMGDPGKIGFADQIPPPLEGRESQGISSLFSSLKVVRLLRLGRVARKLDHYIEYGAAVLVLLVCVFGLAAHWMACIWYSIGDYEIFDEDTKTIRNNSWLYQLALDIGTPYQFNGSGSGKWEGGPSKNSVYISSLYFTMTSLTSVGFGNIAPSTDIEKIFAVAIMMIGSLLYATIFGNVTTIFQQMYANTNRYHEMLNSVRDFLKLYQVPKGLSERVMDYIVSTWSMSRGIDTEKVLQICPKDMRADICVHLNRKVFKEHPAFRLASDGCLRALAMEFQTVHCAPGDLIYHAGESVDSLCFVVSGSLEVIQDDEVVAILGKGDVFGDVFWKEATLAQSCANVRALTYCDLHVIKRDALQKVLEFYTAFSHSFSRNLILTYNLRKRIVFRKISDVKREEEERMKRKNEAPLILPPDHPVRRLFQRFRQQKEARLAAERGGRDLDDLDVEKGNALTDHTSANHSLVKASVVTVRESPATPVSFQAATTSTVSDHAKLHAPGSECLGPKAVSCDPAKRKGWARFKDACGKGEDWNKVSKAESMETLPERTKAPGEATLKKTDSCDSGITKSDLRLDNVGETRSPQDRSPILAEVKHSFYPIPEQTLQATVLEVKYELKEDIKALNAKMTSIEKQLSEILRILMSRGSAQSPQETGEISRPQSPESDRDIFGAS
Experiment: TEVC recording, imipramine inhibition, Y71E mutant
Type: cell-based
Conditions: Y71E mutant EAG1 channel, +50 mV
Text: The cDNA encoding wild-type (WT) mouse EAG1 channels in pGH19 vector was kindly provided by G. Robertson (University of Wisconsin-Madison, Madison, WI). The mutant ΔPAS EAG1 channel in pGH19 with the deletion of the PAS domain residues 2 to 130 was generated by Bio Basic Inc and verified by DNA sequencing (Genewiz). Mutant EAG1 channels with single amino acid substitutions were generated by Genewiz and verified by DNA sequencing. cRNA was transcribed using the T7 mMessage mMachine kit (Thermo Fisher Scientific). Defolliculated Xenopus laevis oocytes were purchased from Ecocyte Bioscience or Xenopus1 and injected with the cRNA using a Nanoinject II oocyte injector (Drummond).
For EAG1 current recordings, oocytes were placed into a handmade chamber containing a bath solution for the current recording. The currents were recorded using a TEVC technique with OC-725C amplifier (Warner Instruments) and pClamp11 software (Molecular Devices). The signals were digitized using Digidata 1550 (Molecular Devices). Patch pipettes were pulled from borosilicate glass and had resistances of 0.7 to 1.5 MΩ. The recording (bath) solution contained 96 mM NaCl, 4 mM KCl, 0.1 mM CaCl2, 1.8 mM MgCl2, and 5 mM HEPES, pH 7.5. The pipette solution contained 3 M KCl. […]

CN(C)CCCN1c2ccccc2CCc2ccccc21 [imipramine]
IC50: 28.5 ± 1.4 µM
